According to patent US12534477B2, “Compound having KHK inhibitory effect” (HANGZHOU ZHONGMEIHUADONG PHARMACEUTICAL CO., LTD., priority 2019, dated 2026):
Read-outs that look alike come from different tables or passages of the source.

Columns and labels:
[1] = target: CYP3A4 (Homo sapiens (Human), UniProt P08684); assay: Inhibitory activity on human liver microsomal cytochrome P450 isozymes; format: in vitro ADME; conditions: human liver microsomes
Procedure: (§1) The inhibitory effect of test compounds on the activity of human hepatic microsomal cytochrome P450 isozymes (CYP1A2, CYP2C9, CYP2C19, CYP2D6 and CYP3A4) was determined.
(§2) First, the test compound (10 mM) was diluted in gradient to prepare working solutions (100×final concentration) with working solution concentrations: 5, 1.5, 0.5, 0.15, 0.05, 0.015, 0.005 mM, respectively, and at the same time, working solutions of each positive inhibitor of P450 isozymes (CYP1A2, CYP2C9, CYP2C19, CYP2D6 and CYP3A4) and its specific substrate mixture were prepared. Human liver microsomes frozen in a −80° C. refrigerator were thawed on ice, and diluted with PB (phosphate buffer) after all the human liver microsomes were dissolved, to prepare a working solution at a certain concentration (0.253 mg/mL). 20 μl substrate mixture was added to the reaction plate (20 μL PB was added to the Blank wells) while 158 μL human liver microsome working solution was added to the reaction plate which was placed on ice for later use. At this time, 2 μL of each concentration of the test compound (N=1) and the specific inhibitor (N=2) were added to the corresponding wells, and the corresponding organic solvents were added to the groups without inhibitors (the test compound or the positive inhibitor) as control samples (1:1 DMSO:MeOH for the test compound control sample, and 1:9 DMSO:MeOH for the positive control sample). After pre-incubation in 37° C. water bath for 10 min, 20 μL coenzyme factor (NADPH) solution was added to the reaction plate, and incubated in 37° C. water bath for 10 min. 400 μL cold acetonitrile solution (200 ng/mL Tolbutamide and Labetalol as the internal standard) was added to stop the reaction. The reaction plate was placed on a shaker and shaken for 10 min. The mixture was centrifuged at 4,000 rpm for 20 min, and 200 μl the supernatant was added to 100 μL water for sample dilution. Finally, the plate was sealed, shaken, mixed well and detected by LC/MS/MS.

[2] = target: CYP2C9 (Homo sapiens (Human), UniProt P11712); assay: as above; format: in vitro ADME; conditions: human liver microsomes
CYP2C9, sequence (P11712 whole entry): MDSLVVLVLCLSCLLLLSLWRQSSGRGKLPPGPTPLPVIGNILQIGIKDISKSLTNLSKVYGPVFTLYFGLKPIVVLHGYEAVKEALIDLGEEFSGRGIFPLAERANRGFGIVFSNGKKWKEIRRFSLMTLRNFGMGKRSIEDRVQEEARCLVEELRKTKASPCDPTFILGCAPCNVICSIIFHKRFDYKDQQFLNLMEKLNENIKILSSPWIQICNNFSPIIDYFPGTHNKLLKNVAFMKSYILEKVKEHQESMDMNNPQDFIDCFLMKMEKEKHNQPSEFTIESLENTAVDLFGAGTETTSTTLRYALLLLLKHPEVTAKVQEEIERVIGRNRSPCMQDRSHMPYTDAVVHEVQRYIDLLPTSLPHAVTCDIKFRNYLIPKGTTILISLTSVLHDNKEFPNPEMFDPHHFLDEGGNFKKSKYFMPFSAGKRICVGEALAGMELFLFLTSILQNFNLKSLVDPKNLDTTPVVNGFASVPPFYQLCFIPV
Procedure: as §1, §2

[3] = target: CYP2D6 (Homo sapiens (Human), UniProt P10635); assay: as above; format: in vitro ADME; conditions: human liver microsomes
CYP2D6, sequence (P10635 whole entry): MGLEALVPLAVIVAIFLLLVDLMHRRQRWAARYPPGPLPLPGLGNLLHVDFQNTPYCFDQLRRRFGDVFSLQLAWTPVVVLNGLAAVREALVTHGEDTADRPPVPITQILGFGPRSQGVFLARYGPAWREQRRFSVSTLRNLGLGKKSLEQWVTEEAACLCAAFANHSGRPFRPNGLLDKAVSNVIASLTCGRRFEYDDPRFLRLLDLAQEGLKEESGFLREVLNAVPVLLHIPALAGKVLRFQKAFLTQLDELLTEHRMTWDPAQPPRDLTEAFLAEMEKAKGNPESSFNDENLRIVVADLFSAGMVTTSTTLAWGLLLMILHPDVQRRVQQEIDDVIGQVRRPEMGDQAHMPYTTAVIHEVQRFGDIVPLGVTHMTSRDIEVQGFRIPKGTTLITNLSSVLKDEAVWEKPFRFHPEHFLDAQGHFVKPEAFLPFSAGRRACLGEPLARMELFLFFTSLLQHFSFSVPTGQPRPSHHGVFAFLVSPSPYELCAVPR
Procedure: as §1, §2

[4] = target: CYP2C19 (Homo sapiens (Human), UniProt P33261); assay: as above; format: in vitro ADME; conditions: human liver microsomes
CYP2C19, sequence (P33261 whole entry): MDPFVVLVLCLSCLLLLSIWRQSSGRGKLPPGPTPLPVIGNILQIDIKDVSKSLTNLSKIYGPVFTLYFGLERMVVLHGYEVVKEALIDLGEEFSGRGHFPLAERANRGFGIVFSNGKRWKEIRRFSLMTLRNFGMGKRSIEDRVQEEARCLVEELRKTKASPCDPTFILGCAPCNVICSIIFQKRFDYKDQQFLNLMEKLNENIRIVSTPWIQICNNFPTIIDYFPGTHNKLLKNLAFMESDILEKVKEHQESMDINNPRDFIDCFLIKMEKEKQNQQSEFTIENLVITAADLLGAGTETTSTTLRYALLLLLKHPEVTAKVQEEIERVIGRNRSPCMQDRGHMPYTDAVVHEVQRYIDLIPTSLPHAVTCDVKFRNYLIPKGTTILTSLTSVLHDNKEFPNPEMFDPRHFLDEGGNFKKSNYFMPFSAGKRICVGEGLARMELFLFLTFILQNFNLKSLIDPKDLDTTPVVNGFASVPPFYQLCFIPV
Procedure: as §1, §2

[5] = Pharmacokinetic evaluation in SD rats; format: in vivo; conditions: rat, plasma; for clearance: 1 mg/kg, read-out: Clearance rate; for clearance / bioavailability: IV 1 mpk; for bioavailability / AUC: PO 3 mpk; for bioavailability: read-out: Bioavailability F; for AUC: read-out: Integral concentration AUC for PO; for half-life: IV 1 mpk and PO 3 mpk study, read-out: Half-life T1/2 (converted)
Procedure: In vivo pharmacokinetics of compounds in SD rats were tested.
Pharmacokinetic profiles in rodents following intravenous and oral administration of the compounds were tested by standard protocols. In the experiment, candidate compounds were formulated as clear solutions or homogeneous suspensions, and were administered to rats by single intravenous injection (IV, 1 mpk) and oral administration (PO, 3 mpk). The vehicle for intravenous injection was a certain proportion of PEG400 in water, and the vehicle for oral administration was a certain proportion of methylcellulose and Tween 80 in water. Whole blood was collected, and plasma was prepared. Drug concentration was analyzed by LC-MS/MS, and pharmacokinetic parameters were calculated by Phoenix WinNonlin software.

[6] = target: CYP1A2 (Homo sapiens (Human), UniProt P05177); format: in vitro ADME; conditions: microsomes
CYP1A2, sequence (P05177 whole entry): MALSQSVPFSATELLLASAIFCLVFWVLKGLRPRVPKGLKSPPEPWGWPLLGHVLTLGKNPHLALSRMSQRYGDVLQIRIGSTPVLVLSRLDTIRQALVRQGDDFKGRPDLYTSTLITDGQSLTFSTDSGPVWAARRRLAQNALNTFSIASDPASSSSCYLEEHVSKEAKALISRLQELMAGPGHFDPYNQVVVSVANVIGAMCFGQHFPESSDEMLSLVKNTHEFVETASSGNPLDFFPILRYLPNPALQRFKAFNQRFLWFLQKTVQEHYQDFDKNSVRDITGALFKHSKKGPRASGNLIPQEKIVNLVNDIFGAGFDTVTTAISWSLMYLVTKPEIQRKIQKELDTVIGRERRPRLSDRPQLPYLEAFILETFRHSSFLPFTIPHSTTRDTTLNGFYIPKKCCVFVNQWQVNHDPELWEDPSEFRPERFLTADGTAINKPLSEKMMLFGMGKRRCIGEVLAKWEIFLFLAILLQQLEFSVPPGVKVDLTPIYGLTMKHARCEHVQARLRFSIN
Procedure: as §1, §2

[7] = target: Recombinant Human Ketohexokinase (KHK) (Homo sapiens (Human), UniProt P50053); assay: Ketohexokinase assay (KHK assay), ADP-Glo; format: biochemical
Recombinant Human Ketohexokinase (KHK), sequence (P50053 whole entry): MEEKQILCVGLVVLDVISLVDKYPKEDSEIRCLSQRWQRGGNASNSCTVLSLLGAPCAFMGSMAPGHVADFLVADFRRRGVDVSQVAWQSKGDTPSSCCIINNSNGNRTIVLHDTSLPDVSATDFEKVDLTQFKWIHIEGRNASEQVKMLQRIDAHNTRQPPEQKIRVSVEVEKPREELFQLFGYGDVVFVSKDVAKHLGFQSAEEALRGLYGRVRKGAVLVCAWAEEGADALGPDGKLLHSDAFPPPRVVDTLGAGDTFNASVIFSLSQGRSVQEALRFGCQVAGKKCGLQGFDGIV
Procedure: • 1. EnVision multilabel reader, Perkin Elmer; • 2. OptiPlate 384-well microplate, Perkin Elmer, Cat. No. 6007290; • 3. Recombinant Human Ketohexokinase (KHK), R&D Cat. No.: 8177-HK-020, Lot No.: DDFK0117092; • 4. Fructose (D(−)-Fructose), SCR Cat. No.: 36003034; and • 5. ADP-Glo kinase assay kit, Promega_Cat. No.: V9101.
1. preparation of Dilution Buffer containing 50 mM hydroxyethylpiperazine […] (Hepes), 140 mM KCl, 3.5 mM MgCl2, and 0.01% bovine serum albumin (BSA), pH 7.4.
2. A working solution of ketohexokinase at 2.5 times concentration was prepared with Dilution Buffer, with 50 nM ketohexokinase and 12.5 mM fructose.
3. A working solution of adenosine triphosphate (ATP) at 2.5 times concentration was prepared with Dilution Buffer, with a concentration of 250 μM.
4. Each compound was diluted starting at a concentration of 500 μM, 3-fold diluted for 9 concentration points. The final concentration of the compound in the reaction system started from 10 μM and the final concentration of dimethyl sulfoxide (DMSO) was 2%.
5. A 96-well plate was prepared as a reaction plate, and was incubated at room temperature for 5 min after adding 6 μL ketohexokinase working solution at 2.5 times concentration to each well and further adding 3 μL compound working solution to each well.
6. The first well of each row was a positive control for a compound, i.e. the same volume of the buffer was added to replace the compound and ketohexokinase. The last well was a negative control for the compound, i.e. the same volume of Dilution Buffer was added instead of the compound.
7. 6 μL ATP working solution was added to each well in a 96-well reaction plate to initiate the kinase reaction. The kinase reaction was incubated in a constant temperature heater at 28° C. for 1 h.
1. A384 plate was prepared as a detection plate, and firstly 5 μL ADP-Glo reagent was added.
2. 5 μL kinase reaction mixture from the reaction plate was added to each well and incubated in a constant temperature heater at 28° C. for 30 min.
3. 10 μL kinase detection reagent was added to each well and incubated in a constant temperature heater at 28° C. for 30 min.
4. The detection plate was placed in an EnVision multilabel reader to read the chemiluminescent signal.

[8] = Liver-blood ratio, tissue distribution in rats; format: in vivo, SD rats; conditions: PO 1 mpk
Procedure: Tissue distribution of compounds in SD rats was tested.
In the experiment, candidate compounds were formulated as clear solutions and administered to rats in a single oral dose (PO, 1 mpk). The vehicle for oral administration was a certain proportion of methylcellulose and Tween 80 in water. Whole blood was collected at a certain time and plasma was prepared, and tissues were collected at the corresponding time and prepared into tissue homogenates. Drug concentration was analyzed by LC-MS/MS, and pharmacokinetic parameters were calculated by Phoenix WinNonlin software.

[9] = tested on: fructose metabolism in mice; assay: Acute fructose feeding experiment in mice; format: in vivo; conditions: compound 30 mpk, oral fructose 1 g/kg
Procedure: The effect of test compounds on the fructose content in mice with high fructose intake was investigated.
All animals were acclimated for one week in an animal house, fed with normal chow and fasted for 16 hours before being given fructose.
1) The experiment began at −0.5 hr. A control group was given a certain volume of vehicle (a certain proportion of methylcellulose and Tween 80 in water), and an experimental group was given a certain dose of a solution of the compound (the administered volume was consistent with the vehicle).
2) 0.5 hour later and before administration of a fructose solution, a blood sample was collected at 0 hr, followed by oral administration of 1 g/kg of an aqueous fructose solution.
3) After the administration of fructose, blood samples were collected from saphenous vein of mice at 0.25, 0.5, 1, 2, 3 and 8 hr, and fructose concentration was analyzed by LC-MS/MS.

[10] = SD, rat, liver, 1 mg/kg, 1.5 h, read-out: Liver tissue concentration
[11] = SD, rat, liver, 1 mg/kg, 2.0 h, read-out: Liver tissue concentration
[12] = SD, rat, liver, 1 mg/kg, 6.0 h, read-out: Liver tissue concentration
[13] = SD, rat, liver/plasma, 1 mg/kg, 1.5 h, read-out: Liver-blood ratio
[14] = SD, rat, liver/plasma, 1 mg/kg, 2.0 h, read-out: Liver-blood ratio
[15] = SD, rat, liver/plasma, 1 mg/kg, 6.0 h, read-out: Liver-blood ratio
[16] = SD, rat, plasma, 1 mg/kg, 1.5 h, read-out: Plasma concentration
[17] = SD, rat, plasma, 1 mg/kg, 2.0 h, read-out: Plasma concentration
[18] = SD, rat, plasma, 1 mg/kg, 6.0 h, read-out: Plasma concentration

CYP3A4, sequence (P08684 whole entry): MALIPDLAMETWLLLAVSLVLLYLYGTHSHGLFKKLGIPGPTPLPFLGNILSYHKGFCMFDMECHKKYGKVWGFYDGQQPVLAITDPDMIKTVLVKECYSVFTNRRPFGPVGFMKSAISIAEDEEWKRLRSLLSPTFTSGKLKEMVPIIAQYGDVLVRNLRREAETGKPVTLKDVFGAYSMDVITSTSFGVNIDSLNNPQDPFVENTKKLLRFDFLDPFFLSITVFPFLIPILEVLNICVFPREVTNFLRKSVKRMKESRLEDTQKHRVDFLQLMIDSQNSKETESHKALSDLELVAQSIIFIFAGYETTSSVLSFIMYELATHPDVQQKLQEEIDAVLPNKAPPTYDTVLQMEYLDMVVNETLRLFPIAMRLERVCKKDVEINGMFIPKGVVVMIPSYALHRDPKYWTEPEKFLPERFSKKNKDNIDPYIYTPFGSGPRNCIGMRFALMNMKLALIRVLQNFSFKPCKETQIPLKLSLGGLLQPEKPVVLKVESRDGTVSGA

C[C@H]1CCN1c1nc(N2C[C@@H]3[C@@H](CC(=O)O)[C@@H]3C2)c2ncsc2n1 [WX001]
IC50 [1]: > 50 µM
IC50 [2]: > 50 µM
IC50 [3]: > 50 µM
IC50 [4]: > 50 µM
clearance [5]: 1.04 mL/min/kg
bioavailability ([5]; 3 mg/kg): 158%
AUC ([5]; 3 mg/kg): 163 µM·h
half-life [5]: 3.12 h
IC50 ([6]; human, 10 min): > 50 µM
IC50 [7]: 0.18 µM
concentration at 1.5 h ([8]; SD, rat, brain, 1 mg/kg, 1.5 h, read-out: Brain tissue concentration): 72.8 nM
concentration at 2 h ([8]; SD, rat, brain, 1 mg/kg, 2.0 h, read-out: Brain tissue concentration): 162 nM
concentration at 6 h ([8]; SD, rat, brain, 1 mg/kg, 6.0 h, read-out: Brain tissue concentration): 91.5 nM
Kp at 1.5 h ([8]; SD, rat, brain/plasma, 1 mg/kg, 1.5 h, read-out: Brain-blood ratio): 0.015
Kp at 2 h ([8]; SD, rat, brain/plasma, 1 mg/kg, 2.0 h, read-out: Brain-blood ratio): 0.017
Kp at 6 h ([8]; SD, rat, brain/plasma, 1 mg/kg, 6.0 h, read-out: Brain-blood ratio): 0.02
concentration at 1.5 h [8, 10]: 2440 nM
concentration at 2 h [8, 11]: 4270 nM
concentration at 6 h [8, 12]: 1790 nM
Kp at 1.5 h [8, 13]: 0.491
Kp at 2 h [8, 14]: 0.469
Kp at 6 h [8, 15]: 0.549
concentration at 1.5 h [8, 16]: 4880 nM
concentration at 2 h [8, 17]: 9090 nM
concentration at 6 h [8, 18]: 3320 nM

C[C@H]1CCN1c1nc(N2CC3(C[C@@H]3C(=O)O)C2)c2c(n1)C(F)(F)CC2 [WX042]
IC50 [1]: > 50 µM
IC50 [2]: > 50 µM
IC50 [3]: > 50 µM
IC50 [4]: > 50 µM
clearance [5]: 8.13 mL/min/kg
AUC ([5]; 3 mg/kg): 20.5 µM·h
half-life [5]: 2.27 h
bioavailability [5]: 176%
AUC of integral fructose concentration for dosed group [9]: 3400 nM·h
AUC of integral fructose concentration of dosed group/AUC of Integral fructose concentration of control group [9]: 12.9
IC50 [6]: > 50 µM
Brain-blood ratio ([8]; 1.5 h): 0.0375
Liver-blood ratio ([8]; 1.5 h): 9.53
Plasma concentration ([8]; 1.5 h): 3314 nM
concentration at 6 h ([8]; 1.5 h, read-out: Brain tissue concentration): 76.2 nM
concentration at 1.5 h ([8]; 1.5 h, read-out: Liver tissue concentration): 19900 nM
Brain-blood ratio ([8]; 2.0 h): 0.0211
Liver-blood ratio ([8]; 2.0 h): 6.78
Plasma concentration ([8]; 2.0 h): 3045 nM
concentration at 6 h ([8]; 2.0 h, read-out: Brain tissue concentration): 62.2 nM
concentration at 1.5 h ([8]; 2.0 h, read-out: Liver tissue concentration): 20600 nM
Liver-blood ratio ([8]; 6.0 h): 26.2
Plasma concentration ([8]; 6.0 h): 259 nM
concentration at 1.5 h ([8]; 6.0 h, read-out: Liver tissue concentration): 6710 nM

C[C@H]1CCN1c1nc(N2C[C@@H]3[C@@H](CC(=O)O)[C@@H]3C2)c2c(F)csc2n1 [WX030]
AUC of integral fructose concentration for dosed group [9]: 1029 nM·h
AUC of integral fructose concentration of dosed group/AUC of Integral fructose concentration of control group [9]: 9.2
IC50 [7]: 0.031 µM

C[C@H]1CCN1c1nc(N2CC3(C[C@H]3C(=O)O)C2)c2ccsc2n1 [WX019]
AUC of integral fructose concentration for dosed group [9]: 849 nM·h
AUC of integral fructose concentration of dosed group/AUC of Integral fructose concentration of control group [9]: 6.1
IC50 [7]: 0.11 µM

C[C@H]1CCN1c1nc(Nc2ccc(CC(=O)O)cc2)c2ccsc2n1 [WX006]
IC50 [1]: > 50 µM
IC50 [2]: > 50 µM
IC50 [3]: > 50 µM
IC50 [4]: > 50 µM
clearance [5]: 1.05 mL/min/kg
bioavailability ([5]; 3 mg/kg): 44%
AUC ([5]; 3 mg/kg): 39.5 µM·h
half-life [5]: 2.63 h
IC50 ([6]; human, 10 min): > 50 µM
IC50 [7]: 0.025 µM
concentration at 1.5 h [8, 10]: 2420 nM
concentration at 2 h [8, 11]: 2860 nM
concentration at 6 h [8, 12]: 2180 nM
Kp at 1.5 h [8, 13]: 1.2
Kp at 2 h [8, 14]: 0.92
Kp at 6 h [8, 15]: 1.25
concentration at 1.5 h [8, 16]: 2010 nM
concentration at 2 h [8, 17]: 3100 nM
concentration at 6 h [8, 18]: 1780 nM
